# Results from publication PMC5244392, “Interspecies cathelicidin comparison reveals divergence in antimicrobial activity, TLR modulation, chemokine induction and regulation of phagocytosis” (Scientific Reports, 2017).
# Experiments:
# Format in all cases: cell-based, murine
# [1] = test system: LPS-induced TLR-4 activation of RAW264.7 cells; test: LPS neutralization: LPS-induced TNFα release; settings: peptide 0.08-20 μM; for Summary class, TLR activation LPS: 100 ng/ml LPS E. coli O111:B4, TNFα after 2 h, − = no significant effect, N = 3; for LPS neutralization / inhibition of LPS-induced activation, in words: 100 ng/ml LPS, 2 h, TNFα
# Description: (§1) TLR ligands: LPS Escherichia coli (E. coli) O111:B4 (TLR-4), LTA S. aureus (TLR-2), and ODN-1826 (TLR-9) were obtained from Invivogen (Toulouse, France). Chicken CATH-2 (chCATH-2) and PMAP-36 were synthesized by Fmoc-chemistry at China Peptides (CPC scientific, Sunnycale, CA) and all other cathelicidins were synthesized by Fmoc-chemistry at the Academic Centre for Dentistry Amsterdam (Amsterdam, The Netherlands) (Table 1). Purity of all peptides was >95% as analyzed by HPLC-MS.
# (§2) RAW264.7 cells were stimulated with 100 ng/ml LPS E. coli O111:B4, 1 μg/ml LTA S. aureus or 2.5 nM ODN-1826 in the presence of various concentrations of different cathelicidins. TNFα release was determined after 2 h for LPS and LTA stimulation and 24 h for ODN-1826 stimulation. CXCL10, CCL5 and IL-10 release were all determined after 24 h stimulation. As a control, RAW264.7 cells were stimulated for 2 h with 10^6 CFU/ml live or heat-killed (70 °C, 0.5 h) E. coli O78, followed by a double wash with cell culture medium and subsequent 22 h incubation in cell culture medium supplemented with 250 μg/ml gentamicin.
# (§3) ELISA Duoset kits for mouse TNFα, CCL5, CXCL10 and IL-10 were obtained from R&D systems (Minneapolis, MN, USA) and ELISAs were performed according to the manufacturer’s protocol. Samples were stored at −20 °C until analysis and, if needed, diluted in 1% BSA in PBS, pH 7.4. Absorbance at 450 nm was determined in a FLUOstar Omega microplate reader (BMG Labtech GmbH) and corrected for absorbance at 570 nm. Results were analyzed with MARS data analysis software (BMG Labtech GmbH).
# (§4) RAW264.7 cells were stimulated for 2 h with 100 ng/ml LPS from E. coli O111:B4 in the presence of different cathelicidins at various concentrations to study the capability of LPS neutralization (Fig. 3A). […] Next, RAW264.7 cells were stimulated with 1 μg/ml S. aureus LTA for 2 h in the presence of various cathelicidin concentrations, to test LTA neutralization (Fig. 3B).
# (§5) Figure 3 Effects of cathelicidins on TLR-2, -4, and -9 activation. LPS (100 ng/ml) (A), LTA (1 μg/ml) (B) or ODN-1826 (2.5 nM) (C) was mixed with different cathelicidins (0.08 μM, 0.31 μM, 1.25 μM, 5 μM, and 20 μM) before addition to the RAW264.7 cells. Supernatants were collected after 2 hours (A,B) or 24 hours (C) incubation and TNFα expression was measured. The dotted line represents the average cytokine release of control samples. Results are presented as average +/− SEM (N = 3). Statistical differences were determined by Two-way ANOVA with Bonferroni post-hoc test.
# [2] = test system: LTA-induced TLR-2 activation of RAW264.7 cells; test: LTA neutralization: LTA-induced TNFα release; settings: peptide 0.08-20 μM; for Summary class, TLR activation LTA: 1 μg/ml LTA S. aureus, TNFα after 2 h, − = no significant effect, N = 3; for LTA neutralization / inhibition of LTA-induced activation, in words: 1 μg/ml S. aureus LTA, 2 h, TNFα
# Description: as §1, §2, §3, §4, §5
# [3] = test system: CCL5 (RANTES) release by RAW264.7 cells; test: Cathelicidin induced CCL5 release; settings: for Induction of CCL5 secretion after 24 h stimulation: 20 μM peptide; for Summary class, chemokines CCL5 (24 h): 24 h stimulation, peptide 0.08-20 μM, − = no significant effect, N = 3
# Method: (§6) E. coli O78 (Zoetis Animal Health, Kalamazoo, MI, USA), E. coli ATCC 25922, Staphylococcus aureus ATCC 29213, and methicillin resistant Staphylococcus aureus (MRSA) (WKZ-2, human clinical isolate) were grown overnight from a glycerol stock in Mueller Hinton Broth (MHB) (Becton Dickinson, USA). Before use, bacteria were grown to mid-log phase in MHB for 2 hours at 37 °C, 200 RPM. Murine RAW264.7 macrophages (ATCC-TIB-71) were obtained from the American Type Culture Collection (ATCC, Manassas, VA, USA) and cultured in DMEM (41966-029; Thermo Fisher Scientific, Waltham, MA, USA) supplemented with 10% FCS (Bodinco B.V., Alkmaar, the Netherlands) (DMEM + FCS) at 37 °C, 5.0% CO2. Cells were seeded in 96-wells plates at 5 × 10^5 cells/ml or 12-wells plates at 2 × 10^5/ml for adherence overnight prior to stimulation.
# as §2, §3
# (§7) Since cathelicidins have membrane-perturbing properties which might affect the host’s cell membrane, first the possible cytotoxicity of the cathelicidins to RAW264.7 cells was assessed. […] Next, RAW264.7 cells were stimulated with the cathelicidins at various concentrations for 2 h and 24 h, after which release of CCL2 (MCP-1), CCL5 (RANTES), CXCL10 (IP-10), TNFα and IL-10 was determined.
# Figure 2 Cathelicidin induced chemokine and cytokine release by RAW264.7 cells. RAW264.7 cells were incubated for 2 h and 24 h with cathelicidins (0.08 μM, 0.31 μM, 1.25 μM, 5 μM, and 20 μM), after which the supernatants were harvested and tested for release of CCL2 at 2 h (A) and 24 h (B), CCL5 at 24 h (C) and CXCL10 at 24 h (D). Dotted line represents average cytokine release of control samples. […] Statistical differences were determined by Two-way ANOVA with Bonferroni post-hoc test.
# [4] = test system: CCL2 (MCP-1) release by RAW264.7 cells; test: Cathelicidin induced CCL2 release; settings: for Summary class, chemokines CCL2 (2 h): 2 h stimulation, − = no significant effect, N = 3
# Method: as §6, §3, §7
# (§8) Figure 2 Cathelicidin induced chemokine and cytokine release by RAW264.7 cells. RAW264.7 cells were incubated for 2 h and 24 h with cathelicidins (0.08 μM, 0.31 μM, 1.25 μM, 5 μM, and 20 μM), after which the supernatants were harvested and tested for release of CCL2 at 2 h (A) and 24 h (B), CCL5 at 24 h (C) and CXCL10 at 24 h (D). Dotted line represents average cytokine release of control samples. Results are presented as average +/− SEM (N = 3). Statistical differences were determined by Two-way ANOVA with Bonferroni post-hoc test.
# [5] = test system: DNA-induced TLR-9 activation of RAW264.7 cells; test: Enhancement of DNA (ODN-1826)-induced TNFα release; settings: 2.5 nM ODN-1826, TNFα after 24 h; for Summary class, TLR activation DNA: peptide 0.08-20 μM, − = no significant effect, N = 3; for Enhancement of DNA-induced TLR-9 activation, in words: 20 μM for the named peptides
# Description: as §1, §2, §3, §5
# All other peptides had no effect on the DNA-induced TLR-9 activation. To ensure that the increase of TNFα secretion was indeed enhancement of DNA-induced activation and not a result of direct induction by cathelicidins, TNFα release was determined after 24 h cathelicidin stimulation (see Supplementary Fig. S2D). None of the cathelicidins induced TNFα release after 24 h, (if anything, most cathelicidins caused a small reduction of TNFα secretion) indicating the increased activation is indeed enhancement of DNA-induced activation.
# [6] = test system: CXCL10 (IP-10) release by RAW264.7 cells; test: Cathelicidin induced CXCL10 release; settings: for Increase of CXCL10 secretion after 24 h stimulation: 20 μM peptide; for Summary class, chemokines CXCL10 (24 h): 24 h stimulation, peptide 0.08-20 μM, − = no significant effect, N = 3
# Method: as §6, §2, §3, §7, §8
Substance,"Summary class, TLR activation LPS [1]","LPS neutralization / inhibition of LPS-induced activation, in words [1]","Summary class, TLR activation LTA [2]","Summary class, TLR activation DNA [5]",Increase of CXCL10 secretion after 24 h stimulation [6],"Summary class, chemokines CXCL10 (24 h) [6]","Enhancement of DNA-induced TLR-9 activation, in words [5]",also measured
"RFGRFLRKIRRFRPKVTITIQGSARF-NH2 [chCATH-2, chicken CATH-2, C-terminal amide, 26 residues, charge +9]",↓↓ (↓↓ = significant decrease ≤5 μM),potently inhibited,↓↓ (↓↓ = significant decrease ≤5 μM),↑↑ (↑↑ = significant increase ≤5 μM),,,,"LTA neutralization / inhibition of LTA-induced activation, in words [2]: potently inhibited; Induction of CCL5 secretion after 24 h stimulation [3]: 2–3 fold; Summary class, chemokines CCL5 (24 h) [3]: ↑ (↑ = significant increase at 20 μM); Enhancement of CCL2 secretion after 2 h stimulation ([4]; 20 μM peptide): 3–4 fold; Summary class, chemokines CCL2 (2 h) ([4]; peptide 0.08-20 μM): ↑ (↑ = significant increase at 20 μM); Optimal concentration to induce DNA activation [5]: 1.25 µM"
"RLKELITTGGQKIGEKIRRIGQRIKDFFKNLQPREEKS [Peptide K9CATH, dog cathelicidin, 38 residues, charge +6]",↓↓ (↓↓ = significant decrease ≤5 μM),significantly inhibited,,,2–3 fold,↑ (↑ = significant increase at 20 μM),,"Induction of CCL5 secretion after 24 h stimulation [3]: 2–3 fold; Summary class, chemokines CCL5 (24 h) [3]: ↑ (↑ = significant increase at 20 μM)"
"RVKRFWPLVPVAINTVAAGINLYKAIRRK [chCATH-3, chicken CATH-3, 29 residues, charge +7]",↓↓ (↓↓ = significant decrease ≤5 μM),significantly inhibited,,,,,,"Enhancement of CCL2 secretion after 2 h stimulation ([4]; 5 μM peptide): 3–4 fold; Enhancement of CCL2 secretion after 2 h stimulation ([4]; 20 μM peptide): 3–4 fold; Summary class, chemokines CCL2 (2 h) ([4]; peptide 0.08-20 μM): ↑↑ (↑↑ = significant increase ≤5 μM)"
"KRRHWFPLSFQEFLEQLRRFRDQLPFP [eCATH-2, equine CATH-2, 27 residues, charge +4]",,,↓↓ (↓↓ = significant decrease ≤5 μM),↑ (↑ = significant increase at 20 μM),2–3 fold,↑ (↑ = significant increase at 20 μM),able to enhance DNA-induced TLR-9 activation,"LTA neutralization / inhibition of LTA-induced activation, in words [2]: significantly inhibited"
"RRRPRPPYLPRPRPPPFFPPRLPPRIPPGFPPRFPPRFP [PR-39, porcine proline-rich cathelicidin forming a polyproline helix, 39 residues, charge +10]",,None of the equine cathelicidins nor PMAP-23 and PR-39 were capable to neutralize LPS,,↑ (↑ = significant increase at 20 μM),,,able to enhance DNA-induced TLR-9 activation,"Effect on CCL2 secretion after 24 h stimulation, in words ([4]; 24 h, peptide 0.08-20 μM): non-significant"
"Ac-GRFRRLRKKTRKRLKKIGKVLKWIPPIVGSIPLGCG [PMAP-36, porcine α-helical cathelicidin, N-acetylated, 36 residues, charge +13]",↓↓ (↓↓ = significant decrease ≤5 μM),,,,,,,Enhancement of CCL2 secretion after 2 h stimulation ([4]; 5 μM peptide): 3–4 fold
"GLLRKGGEKIGEKLKKIGQKIKNFFQKLVPQPEQ [CRAMP, murine cathelicidin, 34 residues, charge +6]",↓↓ (↓↓ = significant decrease ≤5 μM),,↓ (↓ = significant decrease at 20 μM),,2–3 fold,↑ (↑ = significant increase at 20 μM),,
"RIIDLLWRVRRPQKPKFVTVWVR [PMAP-23, porcine α-helical cathelicidin, 23 residues, charge +6]",,None of the equine cathelicidins nor PMAP-23 and PR-39 were capable to neutralize LPS,↓ (↓ = significant decrease at 20 μM),↑ (↑ = significant increase at 20 μM),,,able to enhance DNA-induced TLR-9 activation,
